Measured values published in ChEMBL document CHEMBL6134887, “Linker and Head-Group Exploration of Anti-MRSA Triaromatic Pleuromutilins” (J Med Chem, 2025).
In brackets after ≈: the same amount, converted by molar mass.

Tests used:
Staphylococcus aureus = assay: Antibacterial activity against methicillin resistant Staphylococcus aureus USA300 FPR3757 assessed as inhibition of bacterial growth incubated for 20 to 24 hrs by microbroth serial dilution method; assay type: functional; settings: time 20-24 hrs, read-out: MIC100
[1] = Metabolic stability in human liver microsomes assessed as half-life at 1 uM measured up to 30 mins by LC-MS/MS analysis; assay type: ADME, Microsome
[2] = Metabolic stability in mouse liver microsomes assessed as half-life at 1 uM measured up to 60 mins by LC-MS/MS analysis; assay type: ADME, Microsome
[3] = Metabolic stability in human liver assessed as intrinsic clearance at 1 uM measured up to 30 mins by LC-MS/MS analysis; assay type: ADME, tissue-based; settings: read-out: CLH
[4] = Metabolic stability in mouse liver assessed as intrinsic clearance at 1 uM measured up to 60 mins by LC-MS/MS analysis; assay type: ADME, tissue-based; settings: read-out: CLH

Compound | MIC (Staphylococcus aureus) | other results
C=C[C@]1(C)C[C@@H](OC(=O)Cn2cc(-c3ccnc(NC(=O)c4cnc(OC)cn4)c3)nn2)[C@]2(C)[C@H](C)CC[C@]3(CCC(=O)[C@H]32)[C@@H](C)[C@@H]1O | 0.25 µg/mL (≈ 0.38 µM) | –
C=C[C@]1(C)C[C@@H](OC(=O)Cn2cc(-c3ccc(Cn4cnc5c(=O)[nH]c(N)nc54)cc3)nn2)[C@]2(C)[C@H](C)CC[C@]3(CCC(=O)[C@H]32)[C@@H](C)[C@@H]1O | 2 µg/mL (≈ 2.99 µM) | –
C=C[C@]1(C)C[C@@H](OC(=O)Cn2cc(-c3ccc(Cn4ccnc4)nc3)nn2)[C@]2(C)[C@H](C)CC[C@]3(CCC(=O)[C@H]32)[C@@H](C)[C@@H]1O | 1 µg/mL (≈ 1.7 µM) | half-life at 1 µM [1]: 6.2 min; half-life at 1 µM [2]: 2.4 min; CLint scaled at 1 µM [3]: 1000 mL/min/kg; CLint scaled at 1 µM [4]: 2340 mL/min/kg
C=C[C@]1(C)C[C@@H](OC(=O)Cn2cc(-c3ccc(Nc4ncnc5[nH]cnc45)cc3)nn2)[C@]2(C)[C@H](C)CC[C@]3(CCC(=O)[C@H]32)[C@@H](C)[C@@H]1O | 0.12 µg/mL (≈ 0.188 µM) | half-life at 1 µM [1]: 23.4 min; half-life at 1 µM [2]: 1.76 min; CLint scaled at 1 µM [3]: 297 mL/min/kg; CLint scaled at 1 µM [4]: 3110 mL/min/kg
C=C[C@]1(C)C[C@@H](OC(=O)Cn2cc(-c3cccc(Oc4ncnc5[nH]cnc45)c3)nn2)[C@]2(C)[C@H](C)CC[C@]3(CCC(=O)[C@H]32)[C@@H](C)[C@@H]1O | 0.12 µg/mL (≈ 0.188 µM) | –
C=C[C@]1(C)C[C@@H](OC(=O)Cn2cc(-c3ccc(C(=O)c4ccc5c(N)ncnn45)cn3)nn2)[C@]2(C)[C@H](C)CC[C@]3(CCC(=O)[C@H]32)[C@@H](C)[C@@H]1O | 0.06 µg/mL (≈ 0.09 µM) | half-life at 1 µM [1]: 1.7 min; half-life at 1 µM [2]: 0.54 min; CLint scaled at 1 µM [3]: 3680 mL/min/kg; CLint scaled at 1 µM [4]: > 10000 mL/min/kg
C=C[C@]1(C)C[C@@H](OC(=O)Cn2cc(-c3cccc(C(=O)Nc4ncnc5[nH]cnc45)c3)nn2)[C@]2(C)[C@H](C)CC[C@]3(CCC(=O)[C@H]32)[C@@H](C)[C@@H]1O | 0.12 µg/mL (≈ 0.18 µM) | half-life at 1 µM [1]: 2.7 min; half-life at 1 µM [2]: 1.2 min; CLint scaled at 1 µM [3]: 2340 mL/min/kg; CLint scaled at 1 µM [4]: 4590 mL/min/kg
C=C[C@]1(C)C[C@@H](OC(=O)Cn2cc(-c3ccc(Cn4ccc(=O)[nH]c4=O)cc3)nn2)[C@]2(C)[C@H](C)CC[C@]3(CCC(=O)[C@H]32)[C@@H](C)[C@@H]1O | 0.12 µg/mL (≈ 0.191 µM) | –
C=C[C@]1(C)C[C@@H](OC(=O)Cn2cc(-c3cccc(NC(=O)c4ccccc4)c3)nn2)[C@]2(C)[C@H](C)CC[C@]3(CCC(=O)[C@H]32)[C@@H](C)[C@@H]1O | 0.25 µg/mL (≈ 0.4 µM) | –
C=C[C@]1(C)C[C@@H](OC(=O)Cn2cc(-c3ccc(Cn4ccnc4)cc3)nn2)[C@]2(C)[C@H](C)CC[C@]3(CCC(=O)[C@H]32)[C@@H](C)[C@@H]1O | 0.25 µg/mL (≈ 0.427 µM) | –
C=C[C@]1(C)C[C@@H](OC(=O)Cn2cc(-c3ccc(Cn4cnc5c(=O)[nH]cnc54)cc3)nn2)[C@]2(C)[C@H](C)CC[C@]3(CCC(=O)[C@H]32)[C@@H](C)[C@@H]1O | 0.06 µg/mL (≈ 0.0918 µM) | –
C=C[C@]1(C)C[C@@H](OC(=O)Cn2cc(-c3ccc(Cn4cnc5c(N)ncnc54)c(O)c3)nn2)[C@]2(C)[C@H](C)CC[C@]3(CCC(=O)[C@H]32)[C@@H](C)[C@@H]1O | – | half-life at 1 µM [2]: 0.56 min; CLint scaled at 1 µM [4]: 9770 mL/min/kg
C=C[C@]1(C)C[C@@H](OC(=O)Cn2cc(-c3cncc(C(=O)Nc4ccc(OC)cc4)c3)nn2)[C@]2(C)[C@H](C)CC[C@]3(CCC(=O)[C@H]32)[C@@H](C)[C@@H]1O | 0.12 µg/mL (≈ 0.183 µM) | –
C=C[C@]1(C)C[C@@H](OC(=O)Cn2cc(-c3ccc(NC(=O)c4ccc(OC)cc4)cc3)nn2)[C@]2(C)[C@H](C)CC[C@]3(CCC(=O)[C@H]32)[C@@H](C)[C@@H]1O | 8 µg/mL (≈ 12.2 µM) | –
C=C[C@]1(C)C[C@@H](OC(=O)Cn2cc(-c3ccc(Cn4ccnc4N)cc3)nn2)[C@]2(C)[C@H](C)CC[C@]3(CCC(=O)[C@H]32)[C@@H](C)[C@@H]1O | 0.5 µg/mL (≈ 0.832 µM) | –
C=C[C@]1(C)C[C@@H](OC(=O)Cn2cc(-c3ccc(C(O)c4ccc5c(N)ncnn45)cc3)nn2)[C@]2(C)[C@H](C)CC[C@]3(CCC(=O)[C@H]32)[C@@H](C)[C@@H]1O (stereo not given in full) | 0.06 µg/mL (≈ 0.0898 µM) | –

Compound | MIC (Staphylococcus aureus) | other results
C=C[C@]1(C)C[C@@H](OC(=O)Cn2cc(-c3ccc(Cn4cnc(CO)c4)nc3)nn2)[C@]2(C)[C@H](C)CC[C@]3(CCC(=O)[C@H]32)[C@@H](C)[C@@H]1O | 2 µg/mL (≈ 3.24 µM) | –
C=C[C@]1(C)C[C@@H](OC(=O)Cn2cc(-c3cncc(NC(=O)c4c[nH]c(=O)cn4)c3)nn2)[C@]2(C)[C@H](C)CC[C@]3(CCC(=O)[C@H]32)[C@@H](C)[C@@H]1O | 1 µg/mL (≈ 1.55 µM) | –
C=C[C@]1(C)C[C@@H](OC(=O)Cn2cc(-c3cccc(Oc4nc(N)nc5[nH]cnc45)c3)nn2)[C@]2(C)[C@H](C)CC[C@]3(CCC(=O)[C@H]32)[C@@H](C)[C@@H]1O | 0.12 µg/mL (≈ 0.183 µM) | –
C=C[C@]1(C)C[C@@H](OC(=O)Cn2cc(-c3cncc(C(=O)Nc4ccccn4)c3)nn2)[C@]2(C)[C@H](C)CC[C@]3(CCC(=O)[C@H]32)[C@@H](C)[C@@H]1O | 0.06 µg/mL (≈ 0.0957 µM) | –
O=C(O)Cc1ccccc1Nc1c(Cl)cccc1Cl [DICLOFENAC] | – | half-life at 1 µM [2]: 20.2 min; CLint scaled at 1 µM [4]: 272 mL/min/kg
C=C[C@]1(C)C[C@@H](OC(=O)Cn2cc(-c3ccc(Cn4ccc5c(N)ncnc54)c(O)c3)nn2)[C@]2(C)[C@H](C)CC[C@]3(CCC(=O)[C@H]32)[C@@H](C)[C@@H]1O | 0.06 µg/mL (≈ 0.0898 µM) | –
C=C[C@]1(C)C[C@@H](OC(=O)Cn2cc(-c3ccc(CNc4cc(N)ncn4)nc3)nn2)[C@]2(C)[C@H](C)CC[C@]3(CCC(=O)[C@H]32)[C@@H](C)[C@@H]1O | 0.06 µg/mL (≈ 0.0954 µM) | –
C=C[C@]1(C)C[C@@H](OC(=O)Cn2cc(-c3cccc(NC(=O)c4ccc(OC)nc4)c3)nn2)[C@]2(C)[C@H](C)CC[C@]3(CCC(=O)[C@H]32)[C@@H](C)[C@@H]1O | 0.12 µg/mL (≈ 0.183 µM) | –
C=C[C@]1(C)C[C@@H](OC(=O)Cn2cc(-c3cccc(C(=O)Nc4ccccc4)c3)nn2)[C@]2(C)[C@H](C)CC[C@]3(CCC(=O)[C@H]32)[C@@H](C)[C@@H]1O | 0.25 µg/mL (≈ 0.4 µM) | –
C=C[C@]1(C)C[C@@H](OC(=O)Cn2cc(-c3ccc(Cn4cncc4CO)nc3)nn2)[C@]2(C)[C@H](C)CC[C@]3(CCC(=O)[C@H]32)[C@@H](C)[C@@H]1O | 2 µg/mL (≈ 3.24 µM) | –
C=C[C@]1(C)C[C@@H](OC(=O)Cn2cc(-c3ccc(Cn4cc(C)c(=O)[nH]c4=O)nc3)nn2)[C@]2(C)[C@H](C)CC[C@]3(CCC(=O)[C@H]32)[C@@H](C)[C@@H]1O | 0.12 µg/mL (≈ 0.186 µM) | –
C=C[C@]1(C)C[C@@H](OC(=O)Cn2cc(-c3ccc(Cn4ccc5c(N)ncnc54)cc3)nn2)[C@]2(C)[C@H](C)CC[C@]3(CCC(=O)[C@H]32)[C@@H](C)[C@@H]1O | 0.06 µg/mL (≈ 0.0921 µM) | –
C=C[C@]1(C)C[C@@H](OC(=O)Cn2cc(-c3ccc(Cn4ccc(N)nc4=O)nc3)nn2)[C@]2(C)[C@H](C)CC[C@]3(CCC(=O)[C@H]32)[C@@H](C)[C@@H]1O | 8 µg/mL (≈ 12.7 µM) | –
C=C[C@]1(C)C[C@@H](OC(=O)Cn2cc(-c3ccc(NC(=O)c4ccccc4)cc3)nn2)[C@]2(C)[C@H](C)CC[C@]3(CCC(=O)[C@H]32)[C@@H](C)[C@@H]1O | 4 µg/mL (≈ 6.4 µM) | –
C=C[C@]1(C)C[C@@H](OC(=O)Cn2cc(-c3cncc(C(=O)Nc4ccc(N)cc4)c3)nn2)[C@]2(C)[C@H](C)CC[C@]3(CCC(=O)[C@H]32)[C@@H](C)[C@@H]1O | 0.12 µg/mL (≈ 0.187 µM) | –
C=C[C@]1(C)C[C@@H](OC(=O)Cn2cc(-c3ccc(Cn4cnc5c(=O)[nH]c(N)nc54)nc3)nn2)[C@]2(C)[C@H](C)CC[C@]3(CCC(=O)[C@H]32)[C@@H](C)[C@@H]1O | 8 µg/mL (≈ 11.9 µM) | –
